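Test compounds were applied to cells in 96-well plates for 48 hours at 5 doses. GI50 marks 50% less growth.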 Calls of active or inactive are those of the source. No stated cut-off is given here; in the data, active = GI50 up to about 1.1 µM and inactive = higher.
Tests used:
Assay in all cases: NCI-60 cell line screen, 48 h
NCI-H522 = tested on: NCI-H522
OVCAR-8 = tested on: OVCAR-8
HCC 2998 = tested on: HCC 2998
786-0 = tested on: 786-0
SK-MEL-5 = tested on: SK-MEL-5
IGROV-1 = tested on: IGROV-1
SNB-19 = tested on: SNB-19
SF-295 = tested on: SF-295
ACHN = tested on: ACHN
BT-549 = tested on: BT-549
SF-539 = tested on: SF-539
A498 = tested on: A498
SNB-75 = tested on: SNB-75
HOP-92 = tested on: HOP-92
A549 = tested on: A549
U-251 = tested on: U-251
HCT-15 = tested on: HCT-15
SN12C = tested on: SN12C
HL-60 = tested on: HL-60

SMILES | GI50 (NCI-H522) | GI50 (OVCAR-8) | GI50 (HCC 2998) | GI50 (786-0) | GI50 (SK-MEL-5) | GI50 (IGROV-1) | GI50 (SNB-19) | GI50 (SF-295) | GI50 (ACHN) | GI50 (BT-549) | GI50 (SF-539) | GI50 (A498) | GI50 (SNB-75) | GI50 (HOP-92) | GI50 (A549) | GI50 (U-251) | GI50 (HCT-15) [µM] | GI50 (SN12C) | GI50 (HL-60)
COc1cc(OC)c(OC)cc1/C=C/c1ccccn1 | > 10 µM (inactive) | > 10 µM (inactive) | > 10 µM (inactive) | > 10 µM (inactive) | > 10 µM (inactive) | > 10 µM (inactive) | > 10 µM (inactive) | > 10 µM (inactive) | > 10 µM (inactive) | > 10 µM (inactive) | > 10 µM (inactive) | > 10 µM (inactive) | > 10 µM (inactive) | > 10 µM (inactive) | > 10 µM (inactive) | > 10 µM (inactive) | > 10 | > 10 µM (inactive) | > 10 µM (inactive)
O/N=N/c1ccc(-c2ccccc2)cn1 | 18.8 µM (inactive) | 15 µM (inactive) | 16.9 µM (inactive) | 6.38 µM (inactive) | 11.9 µM (inactive) | 27.7 µM (inactive) | 18.1 µM (inactive) | 8.13 µM (inactive) | 2.86 µM (inactive) | 30.7 µM (inactive) | 17.4 µM (inactive) | 13 µM (inactive) | 6.46 µM (inactive) | 1.32 µM (inactive) | 21.7 µM (inactive) | 15.7 µM (inactive) | 19.6 | 10.8 µM (inactive) | 0.176 µM (active)
COC(=O)CC1(O)C=CC(=O)C=C1 [JACARANONE] | 1.39 µM (inactive) | 3.4 µM (inactive) | 15.3 µM (inactive) | 2.88 µM (inactive) | 3.29 µM (inactive) | 2.02 µM (inactive) | 5.48 µM (inactive) | 5.13 µM (inactive) | 2.99 µM (inactive) | 5.02 µM (inactive) | 3.53 µM (inactive) | 7.16 µM (inactive) | 5.43 µM (inactive) | 8.07 µM (inactive) | 8.67 µM (inactive) | 3.52 µM (inactive) | 3.01 | 9.31 µM (inactive) | 2.59 µM (inactive)
CC(C)=CCC/C(C)=C/CCC1(C)C2COC(=O)C21 (stereo not drawn) | 53.2 µM (inactive) | – | > 100 µM (inactive) | > 100 µM (inactive) | 20.7 µM (inactive) | > 100 µM (inactive) | 82.8 µM (inactive) | 77.4 µM (inactive) | > 100 µM (inactive) | 49.8 µM (inactive) | – | > 100 µM (inactive) | – | 18.2 µM (inactive) | – | 66.2 µM (inactive) | 57.4 | 77.3 µM (inactive) | 19.8 µM (inactive)
CCOC(=O)c1nc2ccc(C(F)(F)F)cc2nc1NCc1cc(OC)c(OC)c(OC)c1 | 37.1 µM (inactive) | > 100 µM (inactive) | 57.9 µM (inactive) | 41.6 µM (inactive) | 27.7 µM (inactive) | > 100 µM (inactive) | > 100 µM (inactive) | > 100 µM (inactive) | 50.6 µM (inactive) | > 100 µM (inactive) | 38.6 µM (inactive) | > 100 µM (inactive) | 29.1 µM (inactive) | 27.7 µM (inactive) | 73.3 µM (inactive) | – | 48.9 | > 100 µM (inactive) | 33 µM (inactive)
Cc1c2ccncc2c(C)c2c1sc1ccccc12 | 5.41 µM (inactive) | 8.22 µM (inactive) | 11.8 µM (inactive) | 4.86 µM (inactive) | 7.87 µM (inactive) | 5.94 µM (inactive) | 9.4 µM (inactive) | 10.1 µM (inactive) | 3.85 µM (inactive) | 16.7 µM (inactive) | 6.73 µM (inactive) | 8.47 µM (inactive) | 14.6 µM (inactive) | 12 µM (inactive) | 4.33 µM (inactive) | 10.8 µM (inactive) | 7.24 | 9.38 µM (inactive) | 2.9 µM (inactive)
CCN(CC)CC1CCCCN1CC(=O)N1c2ccccc2NC(=O)CC1C (stereo not drawn) | > 100 µM (inactive) | > 100 µM (inactive) | > 100 µM (inactive) | > 100 µM (inactive) | > 100 µM (inactive) | > 100 µM (inactive) | > 100 µM (inactive) | > 100 µM (inactive) | > 100 µM (inactive) | > 100 µM (inactive) | > 100 µM (inactive) | > 100 µM (inactive) | – | > 100 µM (inactive) | > 100 µM (inactive) | > 100 µM (inactive) | > 100 | > 100 µM (inactive) | > 100 µM (inactive)
Cc1ccc(S(=O)(=O)Nn2c(-c3ccccc3)c(C#N)c(-c3ccc(Cl)cc3)c(C#N)c2=O)cc1 | – | – | 23.7 µM (inactive) | 6.79 µM (inactive) | 15.2 µM (inactive) | – | 31.2 µM (inactive) | 26.8 µM (inactive) | 22 µM (inactive) | 18.5 µM (inactive) | 21.1 µM (inactive) | 21.8 µM (inactive) | – | 19.5 µM (inactive) | 26.9 µM (inactive) | 21.5 µM (inactive) | 26.9 | 35.7 µM (inactive) | 14.6 µM (inactive)
CN1Cc2cc3cc4c(cc3nc2N(C)C1)OCCO4 | > 100 µM (inactive) | > 100 µM (inactive) | > 100 µM (inactive) | > 100 µM (inactive) | > 100 µM (inactive) | > 100 µM (inactive) | > 100 µM (inactive) | > 100 µM (inactive) | > 100 µM (inactive) | > 100 µM (inactive) | > 100 µM (inactive) | 68.4 µM (inactive) | > 100 µM (inactive) | > 100 µM (inactive) | > 100 µM (inactive) | > 100 µM (inactive) | > 100 | > 100 µM (inactive) | –
CCCCCCCCCCCCCCCC(=O)OCC1CCCN2CCCCC12 (stereo not drawn) | – | > 100 µM (inactive) | > 100 µM (inactive) | > 100 µM (inactive) | > 100 µM (inactive) | – | > 100 µM (inactive) | > 100 µM (inactive) | > 100 µM (inactive) | > 100 µM (inactive) | > 100 µM (inactive) | > 100 µM (inactive) | > 100 µM (inactive) | > 100 µM (inactive) | > 100 µM (inactive) | > 100 µM (inactive) | > 100 | > 100 µM (inactive) | > 100 µM (inactive)
O=C(/C=C/c1ccc(OCc2ccccc2)cc1)NCc1ccc(C(=O)NCCc2c[nH]c3ccccc23)cc1 | – | 6.76 µM (inactive) | 43.2 µM (inactive) | 3.61 µM (inactive) | 17.8 µM (inactive) | 15.9 µM (inactive) | 9.77 µM (inactive) | 3.41 µM (inactive) | 36.5 µM (inactive) | 66.1 µM (inactive) | 2.67 µM (inactive) | 38.9 µM (inactive) | 8.3 µM (inactive) | 21 µM (inactive) | 17.7 µM (inactive) | 4.37 µM (inactive) | > 94 | 23.8 µM (inactive) | 6.22 µM (inactive)
O=C(O)C(Cc1ccccc1)N1C(=O)c2ccccc2C1=O (stereo not drawn) | > 100 µM (inactive) | > 100 µM (inactive) | > 100 µM (inactive) | > 100 µM (inactive) | > 100 µM (inactive) | > 100 µM (inactive) | > 100 µM (inactive) | > 100 µM (inactive) | > 100 µM (inactive) | > 100 µM (inactive) | > 100 µM (inactive) | > 100 µM (inactive) | – | 29.2 µM (inactive) | > 100 µM (inactive) | > 100 µM (inactive) | > 100 | > 100 µM (inactive) | 0.0472 µM (active)
Cn1nnnc1SC(F)(F)c1nc2ccccc2o1 | > 100 µM (inactive) | > 100 µM (inactive) | > 100 µM (inactive) | > 100 µM (inactive) | > 100 µM (inactive) | > 100 µM (inactive) | – | > 100 µM (inactive) | > 100 µM (inactive) | > 100 µM (inactive) | > 100 µM (inactive) | > 100 µM (inactive) | 52.1 µM (inactive) | > 100 µM (inactive) | > 100 µM (inactive) | > 100 µM (inactive) | > 100 | > 100 µM (inactive) | –
C=C1CCCC(C)(C)[C@H]1C/C=C1\CCOC1=O | 18 µM (inactive) | 17.7 µM (inactive) | 23.9 µM (inactive) | 14.7 µM (inactive) | 10.2 µM (inactive) | 14.2 µM (inactive) | 16.8 µM (inactive) | 17.1 µM (inactive) | 15.7 µM (inactive) | 14 µM (inactive) | 17.2 µM (inactive) | 17.2 µM (inactive) | – | 12.1 µM (inactive) | 13.7 µM (inactive) | 16.8 µM (inactive) | 14.5 | 18.2 µM (inactive) | 11.5 µM (inactive)
COc1ccccc1-c1nc(-c2ccccc2O)n[nH]1 | – | > 100 µM (inactive) | > 100 µM (inactive) | > 100 µM (inactive) | > 100 µM (inactive) | – | > 100 µM (inactive) | > 100 µM (inactive) | > 100 µM (inactive) | > 100 µM (inactive) | > 100 µM (inactive) | > 100 µM (inactive) | > 100 µM (inactive) | > 100 µM (inactive) | > 100 µM (inactive) | > 100 µM (inactive) | 45.9 | > 100 µM (inactive) | > 100 µM (inactive)
CCCCc1ccc(NC(=N)N)cc1 | 28.1 µM (inactive) | 38.4 µM (inactive) | 16.3 µM (inactive) | 17.7 µM (inactive) | 12.9 µM (inactive) | 21.7 µM (inactive) | 40.6 µM (inactive) | 23.9 µM (inactive) | 36.7 µM (inactive) | 24.8 µM (inactive) | > 10 µM (inactive) | 35.6 µM (inactive) | – | 28.7 µM (inactive) | 41.5 µM (inactive) | 85.3 µM (inactive) | 33 | 40 µM (inactive) | 34.1 µM (inactive)
